Our source for the melting point values is a melting point compilation (Tetko et al.).

The structures appear in SMILES notation.

For orientation: melting point means the temperature, or range, at which the solid turns liquid. In turn, `COc1ccc(C(N)=NO)c2ccccc12` returned a melting point of 175 to 176 °C.

Turning to `CC12CCC(CC1=NO)C2(C)C` (stereo not given), the melting point came to 118 °C.

For `O=C(O)c1ccc(N2C(=O)C3ON=C(C(=O)c4cccs4)C3C2=O)cc1` (stereo not given), the melting point turned out to be 208 °C.

`Cc1ccc(NC(N)=O)cc1` yielded a melting point of 178 to 181 °C.

For the compound `CC(C)(CO)C(=O)O`, the melting point came out at 124 °C.

`O=C1OC(=O)C2=C1SCCS2`: the melting point lay in the range of 213 to 214 °C.

Compound `CC(C)(C)OC(=O)N[C@H](COCc1ccccc1)C(=O)O` displayed a melting point of 61.5 °C.

As to `CC12CCC3C(CCC4CC(O)CCC43C)C1CCC2O` (stereo not given), the melting point turned out to be 167 °C.

Take `CCOC(=O)c1cc2ccccc2cc1O`: the melting point was in the range of 80 to 81 °C.

Compound `CSCCC(N)CO` (stereo not given) came in with a melting point of 31 to 36 °C.

Regarding `COC(=O)c1ccc(C(=O)Cl)cc1`, the melting point was in the range of 53 to 59 °C.

The compound `O=CC(C=O)c1ccc(Cl)cc1[N+](=O)[O-]` came in with a melting point of 137 to 143 °C.

`O=Cc1ccc(Br)cn1` had a melting point of 95 °C.

`Cc1cc(Oc2ccc(N)cn2)cc(C)c1Cl` returned a melting point of 96 to 98 °C.

For the compound `C=CCN1C(=O)CSC1=S`, the melting point was in the range of 43 to 46 °C.

`O=Cc1c(O)cc(Cl)cc1Cl` displayed a melting point of 52 °C.

For `COc1ccc(CC(N)=O)cc1`, the melting point is 186 °C.

For the compound `N#CC1(C#N)C2COC(C3=C2CCCC3)C1(C#N)C#N` (stereo not given), the melting point is 173 °C.

For `Cc1nc(-c2cccc(C(=O)Cl)c2)no1`, the melting point came to 93 °C.

For `COc1ccc(-c2ocnc2C(=O)Cl)cc1`, the melting point lay in the range of 97 to 99 °C.

As for `CC(C)OC(C)(C)C`, the melting point was -88 °C.

Compound `COC(=O)C1c2ccccc2C(=O)OC1c1ccc([N+](=O)[O-])cc1` (stereo not given) registered a melting point of 134 °C.

On to `CCOC(=O)C(O)c1ccccc1` (racemic), for which the melting point came out at 37 °C.

`COCCOC1=C(N2CC2)C(=O)C(OCCOC)=C(N2CC2)C1=O` registered a melting point of 80 °C.

In turn, `COC1(OC)CC[C@]2(C)[C@H]3CC[C@]4(C)C(=O)CC[C@@]4(O)[C@@H]3CC[C@@]2(C)C1` gave a melting point of 175 to 176 °C.

The compound `CCCCCCCCCCCCOS(=O)(=O)c1ccc(C)cc1` returned a melting point of 28.5 to 31.5 °C.

As to `NC1C2CN(c3nc4c(cc3F)c(=O)c(C(=O)O)cn4-c3ccc(F)cc3F)CC12` (stereo not given), the melting point was 246 °C.

For the compound `CCOC(=O)NC(=O)CCl`, the melting point lay in the range of 127 to 131 °C.

`COc1nc(N)nc(SC)n1` yielded a melting point of 200 to 202 °C.

In the case of `CC(=O)OOC(=O)c1ccccc1`, the melting point was 37 °C.

Take `O=Cc1cc(F)ccc1Br`: the melting point stood at 54 °C.

The compound `OC1CCc2ccccc2C1` (stereo not given) gave a melting point of 15.5 °C.

Consider `Oc1ccc2c(c1)C13CCCCC1C(C2)N(CCc1ccccc1)CC3` (stereo not given), for which the melting point turned out to be 244 °C.

The compound `COc1cc(C2c3cc4c(cc3C(O)C3COC(=O)C23)OCO4)cc(OC)c1OC` (stereo not given) had a melting point of 228 °C.

Compound `Ic1ccc(OC2CCOCC2)cc1` had a melting point of 88.5 to 89.5 °C.

`COc1ccc(C2C(C#N)=C(N)Oc3c2c(C(F)(F)F)nn3-c2ccccc2)cc1` (stereo not given) yielded a melting point of 211 °C.

Regarding `CC1NC(=O)NC1=O` (stereo not given), the melting point stood at 151 °C.

`CCC(=O)c1ccc(O)cc1` came in with a melting point of 150 °C.

Turning to `Cc1cc(C)c2c(c1)CC(C)(C)C(=O)OC2=O`, the melting point was in the range of 99 to 100 °C.

As for `Oc1cc(C(F)(F)F)nc2ccc(Cl)cc12`, the melting point is 280 to 289 °C.

Compound `NC(Cc1c[nH]c2ccc(O)cc12)C(=O)O` (racemic) had a melting point of 299 °C.

`COC(=O)c1cc(Cl)ccc1NC(C)=O` displayed a melting point of 130 °C.

Take `CCOC(=O)C(Cc1ccccc1)(Cc1ccccc1)C(C)=O`: the melting point was 58 °C.

Regarding `Sc1nnc(-c2cccc3ccccc23)n1Cc1ccco1`, the melting point is 177 to 178 °C.

`Clc1ccc(Cl)c(-c2cc(Cl)c(Cl)c(Cl)c2)c1`: the melting point came out at 105 °C.

`CC(=O)C1CCC2C3CCC4CC(N)CCC4(C)C3CCC12C` (stereo not given) yielded a melting point of 126 °C.

Regarding `Cc1ccc(C(=O)c2ccccc2C(=O)O)cc1[N+](=O)[O-]`, the melting point is 205 °C.

Compound `CC(=O)OC1CC2C3CCC(C(C)CCCC(C)C)C3(C)CCC2C2(C)CCC(=O)CC12O` (stereo not given) came in with a melting point of 161 °C.

For the compound `COc1ccc(CCC(=O)O)cc1`, the melting point stood at 104 °C.

On to `CCCCCCCCCC(O)CC` (stereo not given), for which the melting point came out at 25 °C.

The compound `CN(C)c1ccc(N=C=S)cc1` displayed a melting point of 69 to 71 °C.

`Cc1ccc(C(=O)C=Cc2ccc(-c3ccccc3)o2)o1` displayed a melting point of 122 to 123 °C.

With `c1ccc(N2CSc3nnc(-c4cccnc4)n3C2)nc1`, the melting point was 278 to 280 °C.

As to `CC(C)NCC(O)c1ccc2ccccc2c1` (stereo not given), the melting point amounted to 108 °C.

In turn, `CNC(=O)c1cc(C)cc(Cl)c1NC(=O)c1cc(Br)nn1-c1ncccc1Cl` gave a melting point of 209 °C.

Turning to `COc1cscc1C(=O)O`, the melting point was 105 to 108 °C.

In the case of `COc1c(F)ccc(C(N)=O)c1F`, the melting point stood at 112 °C.

As for `Nc1c2ccccc2nc2ccccc12`, the melting point is 241 °C.

Turning to `CCCCCCCC(=O)CC`, the melting point was 2.5 °C.

`CC(=O)Oc1nc(C2CCCCC2)nn1-c1ccccc1` came in with a melting point of 108 °C.

`Cc1c([N+](=O)[O-])cc(N)cc1[N+](=O)[O-]` had a melting point of 171 °C.

As to `CCCC1CC(C(=O)NC(C(C)O)C2OC(SC)C(O)C(O)C2O)N(C)C1` (stereo not given), the melting point was found to be 295 °C.

Turning to `C1CCCCCCCCC1`, the melting point is 10 °C.

Regarding `N#CC1=C(N)N2C(=C(C#N)C1c1ccc(Cl)cc1)Sc1ccccc12` (stereo not given), the melting point was 209 °C.

Regarding `Cc1ccc(C2(O)CCN(CCCC(=O)c3ccc(F)cc3)CC2)cc1`, the melting point came to 118 °C.

For the compound `CN1CCNC(=O)CCSCCC1=O`, the melting point lay in the range of 185 to 187 °C.

With `Cc1ccc(-c2ccc(C)s2)s1`, the melting point was in the range of 65 to 68 °C.

The compound `O=C(NCc1ccc(S(=O)(=O)Cl)s1)c1ccc(Cl)cc1` came in with a melting point of 138 to 140 °C.

Turning to `O=C(c1ccc2ccccc2c1)c1noc(-c2ccc(Cl)cc2)c1S(=O)(=O)c1ccccc1`, the melting point was determined as 165 °C.

For the compound `O=C(OCc1ccc(Cl)cc1)c1cnc(Cl)nc1C(F)(F)F`, the melting point was in the range of 69 to 71 °C.

For `CCC(c1ccccc1)c1c(O)oc2ccccc2c1=O` (stereo not given), the melting point amounted to 180 °C.

`O=C(CO)[C@@H](O)[C@H](O)[C@@H](O)CO`: the melting point amounted to 165 °C.

Compound `Cn1nc(-c2ccc(S(=O)(=O)Cl)s2)cc1C(F)(F)F` registered a melting point of 83 to 86 °C.

`Cc1cc(C)nc(NNC=Cc2ccc([N+](=O)[O-])cc2)n1`: the melting point fell in the range of 183 to 184 °C.

In the case of `COc1ccccc1C1CCNCC1`, the melting point lay within 54 to 55 °C.

Take `CN1CCN(C2=C(Cl)C(=O)c3ccccc3C2=O)CC1`: the melting point was 120 °C.

Turning to `Cc1cc(Br)c[nH]c1=O`, the melting point lay within 171 to 175 °C.

For `O=C1C=CC2C3C=CC(C3)C12` (stereo not given), the melting point amounted to 56 °C.

Turning to `Cc1nc(-c2ccc(C=O)cc2)cs1`, the melting point was 101 to 102 °C.

As to `COc1cccc2cc(C(=NO)c3cc4cccc(OC)c4o3)oc12`, the melting point is 214 to 215 °C.

As for `OCCCCCCCCCCCBr`, the melting point worked out at 46 °C.

Consider `CCCCCCCCCOC(C)=O`, for which the melting point is -26 °C.

In turn, `Oc1ccc(C2(c3ccc(O)cc3)CC3CC2C2CCCC32)cc1` (stereo not given) registered a melting point of 219 to 221 °C.

For the compound `Clc1cc2c(c(Cl)c1Cl)Oc1c(cc(Cl)c(Cl)c1Cl)O2`, the melting point was 243 °C.

As for `N#Cc1ccc(-c2cccs2)s1`, the melting point was determined as 100 °C.

Turning to `Cc1cccc2c(=O)c(=O)c12`, the melting point was found to be 121 °C.

In the case of `CCOC(=O)C(C)OC(=O)c1cc(Oc2ccc(C(F)(F)F)cc2Cl)ccc1[N+](=O)[O-]` (stereo not given), the melting point is 45 °C.

For `CC(=O)Nc1cc([N+](=O)[O-])c(F)cc1F`, the melting point fell in the range of 146 to 148 °C.

Consider `Nc1cc(C(F)(F)F)ccn1`, for which the melting point amounted to 73 °C.

As for `CCOP(=O)(O)C(N)=O`, the melting point stood at 174 °C.

As for `CC12CCC(C(C(c3ccccc3)c3ccccc3)C1=O)C2(C)C` (stereo not given), the melting point came to 137 °C.

The compound `N#Cc1c(-c2ccc(Br)cc2)cc2c(C#N)c(=N)n(C(=O)c3ccc(Cl)cc3)n2c1N` displayed a melting point of 190 °C.

`C=CCSc1nc(C)n[nH]1` returned a melting point of 88 to 90 °C.

`CC(C)(O)CCc1ccccc1O` registered a melting point of 114 to 116 °C.

`C/C(=N/Nc1ccccc1)C1=Cc2ccccc2C1`: the melting point is 225 °C.

For `Cc1c(C)c([N+](=O)[O-])c(C)c2c1C(=O)C2`, the melting point was 164 °C.

`CS(=O)(=O)c1scc(-c2ccccc2)c1C#N`: the melting point was 164 to 166 °C.

Consider `CC(=O)Nc1ccc(F)cc1[N+](=O)[O-]`, for which the melting point fell in the range of 70 to 73 °C.

Take `CCCCCCCCC(=O)OCC`: the melting point is -36.7 °C.

Regarding `O=C(O)c1cc2cccnc2s1`, the melting point fell in the range of 293 to 294 °C.

The compound `Cc1cc(C)n2nc(N)c(/N=N/c3cccnc3)c2n1` showed a melting point of 245 °C.

In turn, `COc1ccc2c(c1)[nH]c1c(C)nccc12` had a melting point of 273 °C.

As for `CC1(C)C(C=C2CCSC2=O)C1C(=O)OCc1coc(Cc2ccccc2)c1` (stereo not given), the melting point came to 31 °C.

In turn, `O=C(CNc1cccc([N+](=O)[O-])c1)c1ccccc1` gave a melting point of 169 °C.

As to `NC(=S)Nc1ccc(F)cc1`, the melting point was in the range of 162 to 167 °C.

`CC(=O)Nc1cc(Cl)c(Cl)cc1[N+](=O)[O-]` displayed a melting point of 126 to 128 °C.

In the case of `CCCCC=CC=CC=CCCCCCCCC(=O)O`, the melting point was determined as 71.5 °C.

In turn, `CCOC(=O)c1c(-c2ccccc2)csc1N` yielded a melting point of 92 °C.

As to `COC1=CC(=O)NC1`, the melting point stood at 132 °C.

For `CCOc1cc(OCC)cc(OCC)c1`, the melting point came out at 43.5 °C.
